Data published in patent publication US20240173333A1, “Treating Alagille Syndrome (ALGS)” (priority 2022, published 2024).
Read-outs that look alike come from different tables or passages of the source. Marks after values point to notes of the source that are not given here.

Tests used:
[1] = tested on: patients with Alagille syndrome (ALGS); experiment: ASSERT: Clinician Xanthoma Scale; type: in vivo, human
Description: Clinical Assessment of Xanthoma. Changes in xanthoma as assessed by the Clinician Xanthoma Scale were measured at randomization (Study Day 1), Week 12, and Week 24/EOT visits. The clinician's assessment of the participant's xanthomatosis was focused on the number of lesions present and the degree to which the participant's lesions interfered or limited activities.

[2] = tested on: patients with Alagille syndrome (ALGS); experiment: ASSERT-EXT open-label extension: safety, TEAEs; type: in vivo, human
Description: ASSERT-EXT is a Phase 3, multi-center, open-label extension study designed to evaluate the long-term safety and efficacy of 120 μg/kg/day odevixibat in relieving pruritus in patients with ALGS. Patients who participated in the ASSERT trial (see Example 1) and met eligibility criteria for the ASSERT trial were eligible to participate. The duration of the treatment period is 72 weeks, followed by a 4-week Safety Follow-up Period. Clinic visits occur every 4 to 12 weeks. Patients who wish to continue receiving odevixibat after 72 weeks will have the opportunity to remain on treatment in an optional extension period with visits every 16 weeks until the drug is commercially available, provided continued use is supported by the risk-benefit profile, the patient has not been previously withdrawn or discontinued from the study, and the study is not terminated by the Sponsor. The 4-week Safety Follow-up Period will not occur for those who remain on treatment in the optional extension period.
Day 1 coincided with Week 24 in the ASSERT trial; however, if this was not possible due to logistic issues, patients enrolled in the ASSERT-EXT trial within 28 days of completion of the ASSERT trial. All patients in the ASSERT-EXT trial receive odevixibat 120 μg/kg/day. Two groups were analyzed up to an interim cut-off date of Sep. 9, 2022: treatment-naïve patients who received placebo in ASSERT (i.e., “placebo-odevixibat”) and patients who received odevixibat in ASSERT (i.e., “odevixibat-odevixibat”).
Safety Analysis. The primary safety analysis for this study included the incidence of total treatment emergent AEs (TEAEs) and TEAEs categorized by causality, severity, and seriousness assessments made by the investigator. Trends in safety were also evaluated for the following assessments: Physical examinations; Concomitant medications; Vital signs; Laboratory test results (including clinical chemistry, hematology, urinalysis, AFP, vitamins A, E, and 25-hydroxy vitamin D, and INR); Liver ultrasound and elastography (where available); and Discontinuations due to Aes.

[3] = tested on: patients with Alagille syndrome (ALGS); experiment: Pooled ASSERT and ASSERT-EXT: observer-reported scratching scores; type: in vivo, human; settings: for mean scratching score: pooled
Description: In the completed 24-week ASSERT study, patients with ALGS with history of significant pruritus and elevated serum BAs were randomized 2:1 to once-daily odevixibat 120 μg/kg or placebo, respectively. Patients who completed ASSERT could enter ASSERT-EXT, an ongoing, 72-week open-label extension study in which all patients receive odevixibat 120 μg/kg/day. This pooled analysis included all odevixibat-treated patients from ASSERT and/or ASSERT-EXT and spans from patients' first dose of odevixibat to a data cut-off of Sep. 9, 2022. Assessments over up to 36 weeks of treatment included change in observer-reported scratching scores and sleep parameters, as well as levels of serum BAs, autotaxin (a proposed meditator of pruritus), and 7 alpha-hydroxy-4-cholesten-3-one (C4; a marker of bile acid synthesis). Safety evaluations included assessment of alanine aminotransferase (ALT), total bilirubin, and treatment-emergent adverse events (TEAEs).

[4] = tested on: pediatric patient with genetic confirmation of ALGS
Source text: The ileal bile acid transporter (IBAT) is a regulator of the enterohepatic bile acid circulation (Karpen et al.). Given the central feature of cholestasis in ALGS and the role of IBAT in bile acid homeostasis, IBAT inhibitors may help alleviate symptoms of ALGS. The IBAT inhibitor odevixibat is indicated for treatment of pruritus in patients ≥3 months old with progressive familial intrahepatic cholestasis (PFIC), another pediatric cholestatic liver disease, in the US and for treatment of PFIC in patients aged ≥6 months in the European Union.
The patient was referred to specialist care […]. […] […], a liver biopsy was performed.
During this clinical course, the patient received UDCA (15 mg/kg body weight) and naltrexone (1 mg/kg/day), treatments that were pursued according to German treatment guidelines and following discussions among the care team and with the patient's parents.

patients with ALGS = settings: 6 patients with ALGS; 4 weeks; open-label; cited from earlier work
[5] = tested on: patients with Alagille syndrome (ALGS); experiment: ASSERT pruritus responders: caregiver-reported PedsQL
Source text: Treatment with concomitant medications for pruritus was permitted provided the patient was on a stable dosage for ≥4 weeks prior to enrollment that was maintained throughout the study.
Pruritus responders were defined as patients having a ≥1-point decrease in ObsRO scratching score from baseline to weeks 21-24).

With `CCCCC1(CCCC)CN(c2ccccc2)c2cc(SC)c(OCC(=O)N[C@@H](C(=O)N[C@@H](CC)C(=O)O)c3ccc(O)cc3)cc2S(=O)(=O)N1` [odevixibat, 1,1-dioxo-3,3-dibutyl-5-phenyl-7-methylthio-8-(N-{(R)-α-[N-((S)-1-carboxypropyl)carbamoyl]-4-hydroxybenzyl}carbamoylmethoxy)-2,3,4,5-tetrahydro-1,2,5-benzothiadiazepine] the “patients with no change from baseline to week 24 in xanthomas” value ([1]; 27/35, incl. 25 patients without xanthomas at any time point) was 77%, the “patients showing improvements in xanthomas” value ([1]; baseline to week 24, n=35) was 20% and the “patients whose Clinician Xanthoma Scale score increased (from 0 to 1)” value ([1]; baseline to week 24, n=35) was 3%. The “Serious TEAEs” value ([2]; 2/49 patients, interim cut-off) was 4%, the “drug-related serious TEAEs or TEAEs leading to discontinuation or dose reduction” value ([2]; interim cut-off) was “No drug-related serious TEAEs or TEAEs leading to discontinuation or dose reduction” and the “incidence of drug-related diarrhea” value ([2]; n=49, interim cut-off) was 4%. For the same compound, the “incidence of treatment-emergent diarrhea” value ([2]; n=49, interim cut-off) was 16%, the tolerability ([2]; treatment for ≥24 weeks) was “well tolerated” and the mean scratching score ([3]; baseline, before odevixibat) was 2.6. For the same compound, the “patients with a pruritus response (≥1 point reduction from baseline in scratching score)” value ([3]; last assessment on odevixibat, n=37/49) was 76%, the mean scratching score ([3]; weeks 1-4, 120 μg/kg/day) was 1.7 and the mean scratching score ([3]; weeks 21-24) was 1.0. The mean scratching score ([3]; weeks 33-36) was 0.6, the “effect of dosage change on sBAs” value ([4]; 30 μg/kg/day, September to October 2021) was “associated with an increase in sBAs” and the “drop in sBAs” value ([4]; Apr. 27, 2021 to May 31, 2021, 120 μg/kg/day started May 19, 2021) was “approximately 90%”. For the same compound, the “sBAs after start of odevixibat” value ([4]; May 31, 2021, from 700 μmol/L on Apr. 27, 2021, 120 μg/kg/day) was 69 µmol/L, the “bowel movements improved after” value ([4]; after starting odevixibat) was 1 week and the “pruritus almost entirely disappeared within” value ([4]; after starting odevixibat) was no more than 2 weeks. For the same compound, the “pruritus stopped completely after” value ([4]; after starting odevixibat) was 8 months, the “effect of dosage change on sBAs” value ([4]; back to 120 μg/kg/day in mid-December) was “corresponded with a drop in sBAs” and the adverse events ([4]; in vivo) was “did not experience any adverse events”. For the same compound, the “sBA levels reached the normal range after” value ([4]; treatment duration) was 8 months, the “effect on sBAs, itch, and sleep disturbance” value (patients with ALGS) was “reduced sBAs, itch, and sleep disturbance in a majority of those patients” and the “PedsQL total score, Baseline Mean (SE)” value ([5]; n=24, range 0-100) was 68 (3). The “PedsQL total score, Mean (SE) Change From Baseline” value ([5]; to week 24, n=23) was 16 (4)^c and the “PedsQL total score, Week 24 Mean (SE)” value ([5]; week 24, n=25) was 83 (2).
